Measured values taken from publication PMC8409970, “In vitro and in silico studies of bis (indol-3-yl) methane derivatives as potential α-glucosidase and α-amylase inhibitors” (Journal of Enzyme Inhibition and Medicinal Chemistry, 2021).

Columns and labels:
3T3-L1 cells = assay: In vitro cytotoxicity assay (MTT) on 3T3-L1 cells; assay type: cell-based, Mouse; settings: 20 ∼ 80 μM, 24 h
Description: (§1) Moreover, the preliminary in vitro safety of compounds 5e, 5 g, 5 h, and 5 s were tested on Mouse Preadipocytes cells (3T3-L1) and Human liver cancer cells (HepG2) using MTT method and the results were shown in Figure 11.
(§2) The 3T3-L1 cells or HepG2 cells were cultured in DMEM medium containing 10% foetal bovine serum, 100 U/mL penicillin and 0.1 mg/mL streptomycin in a humidified incubator with a 5% CO2 atmosphere at 37 °C. Cells in the logarithmic growth phase were used for this assay. After 5 × 10^3 3T3-L1 cells were seeded in 96 well plates for 24 h, compound with different concentration was added into each well for 24 h. MTT reagent (100 μL, 0.5 mg/mL) was added to each well for 4 h incubation. After the supernatant was discarded, 100 μL of DMSO was added. The absorbance was measured at 490 nm. Each sample was performed in 3 parallel experiments.

HepG2 cells = assay: In vitro cytotoxicity assay (MTT) on HepG2 cells; assay type: cell-based, Human; settings: 20 ∼ 80 μM, 24 h
Description: as §1, §2

α-amylase = target: T1, α-amylase (Sus scrofa, UniProt P00690); assay: Inhibition mechanism study of α-amylase inhibitor (enzyme concentration plots, Lineweaver-Burk plots); assay type: biochemical; settings: for Inhibition type against α-amylase: Lineweaver-Burk plots; for KIS value (μM) against α-amylase: binding of inhibitor to enzyme-substrate complex; for Reversibility of α-amylase inhibition: plots of enzyme concentration vs remaining enzyme activity
T1 sequence (P00690 16-511): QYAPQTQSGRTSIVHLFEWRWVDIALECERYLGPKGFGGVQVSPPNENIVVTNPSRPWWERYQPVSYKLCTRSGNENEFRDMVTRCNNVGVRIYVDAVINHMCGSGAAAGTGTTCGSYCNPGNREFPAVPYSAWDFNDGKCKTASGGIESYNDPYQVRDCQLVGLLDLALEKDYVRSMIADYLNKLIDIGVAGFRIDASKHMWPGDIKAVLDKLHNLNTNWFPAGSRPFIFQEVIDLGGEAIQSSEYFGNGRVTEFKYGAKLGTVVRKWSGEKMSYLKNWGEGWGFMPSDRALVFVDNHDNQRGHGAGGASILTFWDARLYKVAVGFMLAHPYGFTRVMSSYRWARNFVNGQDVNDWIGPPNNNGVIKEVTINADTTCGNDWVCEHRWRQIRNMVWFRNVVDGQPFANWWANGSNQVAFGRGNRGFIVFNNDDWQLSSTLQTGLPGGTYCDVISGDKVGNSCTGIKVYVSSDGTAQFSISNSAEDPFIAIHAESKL
Description: The highest potent inhibitory compounds 5 g, 5 h, and 5 s were evaluated their inhibition mechanism. […] Lineweaver-Burk plots were used to analyse the inhibitory kinetics of compounds 5 g, 5 h, and 5 s. […] Besides, the KI and KIS values of compounds 5 g, 5 h, and 5 s were measured, showing KI values were higher than KIS values (Table 3).
(§3) The inhibition mechanism of compounds 5 g, 5 h, and 5S was also analysed. The enzyme inhibitory kinetics was detected using plots of enzyme concentration vs remaining enzyme activity at different inhibitor concentrations, and the substrate inhibitory kinetics was obtained from Lineweaver-Burk plot of remaining enzyme activity vs substrate concentration in the presence of different inhibitor concentrations.

α-glucosidase = α-glucosidase (Saccharomyces cerevisiae, UniProt P53341); assay: Inhibition mechanism study of α-glucosidase inhibitor (enzyme concentration plots, Lineweaver-Burk plots); assay type: biochemical; settings: for Inhibition type against α-glucosidase: Lineweaver-Burk plots; for KIS value (μM) against α-glucosidase: binding of inhibitor to enzyme-substrate complex; for Reversibility of α-glucosidase inhibition: plots of enzyme concentration vs remaining enzyme activity
α-glucosidase, sequence (P53341 whole entry): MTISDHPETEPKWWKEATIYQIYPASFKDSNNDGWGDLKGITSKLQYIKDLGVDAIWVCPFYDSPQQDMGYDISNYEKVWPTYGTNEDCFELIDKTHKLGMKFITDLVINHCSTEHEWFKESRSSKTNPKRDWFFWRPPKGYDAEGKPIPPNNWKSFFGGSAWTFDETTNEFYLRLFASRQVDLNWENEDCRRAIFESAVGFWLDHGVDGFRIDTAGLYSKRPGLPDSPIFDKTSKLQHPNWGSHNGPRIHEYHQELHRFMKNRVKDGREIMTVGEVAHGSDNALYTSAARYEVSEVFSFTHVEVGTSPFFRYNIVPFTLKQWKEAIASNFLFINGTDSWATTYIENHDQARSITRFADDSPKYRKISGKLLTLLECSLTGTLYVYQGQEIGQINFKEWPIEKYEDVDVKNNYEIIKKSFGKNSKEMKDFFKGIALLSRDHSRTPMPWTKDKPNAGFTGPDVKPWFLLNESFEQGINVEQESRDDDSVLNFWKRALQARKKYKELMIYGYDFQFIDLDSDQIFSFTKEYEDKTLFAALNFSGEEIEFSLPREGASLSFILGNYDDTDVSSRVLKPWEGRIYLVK
Description: The relationship of enzyme concentration with enzyme activity in presence of compounds 5e, 5 g, and 5 h was firstly investigated.
The inhibitory kinetics of compounds 5e, 5 g, and 5 h on α-glucosidase were studied using Lineweaver-Burk plots.
Besides, we also determined the equilibrium constants of binding of inhibitors to free enzymes (KI) and enzyme-substrate complexes (KIS) through plots of slope (Km/Vm) and vertical intercept (1/Vm) vs inhibitor concentration.
as §3, with “g, 5e, and” for “g,”, “h” for “h, and 5S”, “analysed using similar above method.” for “also analysed.”, “concentrations.[32]” for “concentrations.”

SMILES: Cc1[nH]c2ccccc2c1C(C#N)c1c(C)[nH]c2ccccc12 [Compound 5i, 2,2-Bis(2-methyl-1H-indol-3-yl)acetonitrile]
- melting point: 231.2 to 236.6 °C

SMILES: CCOC(=O)CNc1ccc(C(C#N)c2ccc(NCC(=O)OCC)cc2)cc1 [Compound 7b, Diethyl 2,2’-(((cyanomethylene)bis(4,1-phenylene))bis(azanediyl))diacetate]
- melting point: 87.5 to 93.4 °C

SMILES: COc1ccc2[nH]cc(C(C#N)c3c[nH]c4ccc(OC)cc34)c2c1 [Compound 5p, 2,2-Bis(5-methoxy-1H-indol-3-yl)acetonitrile]
- melting point: 118.5 to 123 °C

SMILES: N#CC(c1c[nH]c2c(Cl)cccc12)c1c[nH]c2c(Cl)cccc12 [Compound 5f, 2,2-Bis(7-chloro-1H-indol-3-yl)acetonitrile]
- melting point: 162.2 to 168.8 °C

SMILES: Cn1cc(C(C#N)c2cn(C)c3ccc(Br)cc23)c2cc(Br)ccc21 [Compound 5s, 2,2-Bis(5-bromo-1-methyl-1H-indol-3-yl)acetonitrile]
- Effect on the viability of 3T3-L1 cells (3T3-L1 cells): no effect on the viability
- Effect on the viability of HepG2 cells (HepG2 cells): no effect on the viability
- melting point: 177.7 to 181.7 °C
- Inhibition type against α-amylase (α-amylase): Mixed type
- Inhibition type against α-amylase (α-amylase; listed as 5 s): mixed inhibitors
- KIS value (μM) against α-amylase (α-amylase): 9.01 µM
- Reversibility of α-amylase inhibition (α-amylase): reversibly inhibited

SMILES: N#CC(c1c(-c2ccccc2)[nH]c2ccccc12)c1c(-c2ccccc2)[nH]c2ccccc12 [Compound 5h, 2,2-Bis(2-phenyl-1H-indol-3-yl)acetonitrile]
- Effect on the viability of 3T3-L1 cells (3T3-L1 cells): no effect on the viability
- Effect on the viability of HepG2 cells (HepG2 cells): no effect on the viability
- melting point: 112 to 117.9 °C
- Inhibition type against α-glucosidase (α-glucosidase): Mixed type
- Inhibition type against α-glucosidase (α-glucosidase; listed as 5 h): mixed-type inhibitors
- KIS value (μM) against α-glucosidase (α-glucosidase): 1.69 µM
- Reversibility of α-glucosidase inhibition (α-glucosidase): reversible
- Inhibition type against α-amylase (α-amylase): Mixed type
- Inhibition type against α-amylase (α-amylase; listed as 5 h): mixed inhibitors
- KIS value (μM) against α-amylase (α-amylase): 1.63 µM
- Reversibility of α-amylase inhibition (α-amylase): reversibly inhibited

SMILES: Cc1ccc2c(C(C#N)c3c[nH]c4cc(C)ccc34)c[nH]c2c1 [Compound 5l, 2,2-Bis(6-methyl-1H-indol-3-yl)acetonitrile]
- melting point: 178.4 to 183.7 °C

SMILES: N#CC(c1c[nH]c2ccc(F)cc12)c1c[nH]c2ccc(F)cc12 [Compound 5b, 2,2-Bis(5-fluoro-1H-indol-3-yl)acetonitrile]
- melting point: 182.7 to 187.5 °C

SMILES: Cc1cccc2c(C(C#N)c3c[nH]c4c(C)cccc34)c[nH]c12 [Compound 5m, 2,2-Bis(7-methyl-1H-indol-3-yl)acetonitrile]
- melting point: 214.1 to 219.4 °C

SMILES: Cc1ccc2[nH]cc(C(C#N)c3c[nH]c4ccc(C)cc34)c2c1 [Compound 5k, 2,2-Bis(5-methyl-1H-indol-3-yl)acetonitrile]
- melting point: 205.1 to 210.1 °C

SMILES: N#CC(c1c[nH]c2ccc(Cl)cc12)c1c[nH]c2ccc(Cl)cc12 [Compound 5d, 2,2-Bis(5-chloro-1H-indol-3-yl)acetonitrile]
- melting point: 168 to 173.4 °C

SMILES: Cn1cc(C(C#N)c2cn(C)c3ccccc23)c2ccccc21 [Compound 5r, 2,2-Bis(1-methyl-1H-indol-3-yl)acetonitrile]
- melting point: 70.3 to 74.6 °C

SMILES: N#CC(c1c[nH]c2ccc(Br)cc12)c1c[nH]c2ccc(Br)cc12 [Compound 5g, 2,2-Bis(5-bromo-1H-indol-3-yl)acetonitrile]
- Effect on the viability of 3T3-L1 cells (3T3-L1 cells): no effect on the viability
- Effect on the viability of HepG2 cells (HepG2 cells): no effect on the viability
- Inhibition type against α-glucosidase (α-glucosidase): Mixed type
- Inhibition type against α-glucosidase (α-glucosidase; listed as 5 g): mixed-type inhibitors
- KIS value (μM) against α-glucosidase (α-glucosidase): 1.59 µM
- Reversibility of α-glucosidase inhibition (α-glucosidase): reversible
- Inhibition type against α-amylase (α-amylase): Mixed type
- Inhibition type against α-amylase (α-amylase; listed as 5 g): mixed inhibitors
- KIS value (μM) against α-amylase (α-amylase): 25.02 µM
- Reversibility of α-amylase inhibition (α-amylase): reversibly inhibited

SMILES: N#CC(c1c[nH]c2cc(Cl)ccc12)c1c[nH]c2cc(Cl)ccc12 [Compound 5e, 2,2-Bis(6-chloro-1H-indol-3-yl)acetonitrile]
- Effect on the viability of 3T3-L1 cells (3T3-L1 cells): no effect on the viability
- Effect on the viability of HepG2 cells (HepG2 cells): no effect on the viability
- melting point: 175.6 to 178.2 °C
- Inhibition type against α-glucosidase (α-glucosidase): mixed-type inhibitors
- KIS value (μM) against α-glucosidase (α-glucosidase): 2.11 µM
- Reversibility of α-glucosidase inhibition (α-glucosidase): reversible

SMILES: COC(=O)CNc1ccc(C(C#N)c2ccc(NCC(=O)OC)cc2)cc1 [Compound 7c, Dimethyl 2,2’-(((cyanomethylene)bis(4,1-phenylene))bis(azanediyl))diacetate]
- melting point: 135.7 to 140.8 °C

SMILES: COC(=O)c1ccc2[nH]cc(C(C#N)c3c[nH]c4ccc(C(=O)OC)cc34)c2c1 [Compound 5q, Dimethyl 3,3'-(cyanomethylene)bis(1H-indole-5-carboxylate)]
- melting point: 259.6 to 266.9 °C

SMILES: N#CC(c1c[nH]c2ccccc12)c1c[nH]c2ccccc12 [Compound 5a, 2,2-Di(1H-indol-3-yl)acetonitrile]
- melting point: 173.9 to 178.3 °C

SMILES: N#CC(c1c[nH]c2cccc(Cl)c12)c1c[nH]c2cccc(Cl)c12 [Compound 5c, 2,2-Bis(4-chloro-1H-indol-3-yl)acetonitrile]
- melting point: 230 to 235.8 °C

SMILES: Cc1ccc2[nH]c(C)c(C(C#N)c3c(C)[nH]c4ccc(C)cc34)c2c1 [Compound 5o, 2,2-Bis(2,5-dimethyl-1H-indol-3-yl)acetonitrile]
- melting point: 231.2 to 236.4 °C

SMILES: Cc1cccc2[nH]cc(C(C#N)c3c[nH]c4cccc(C)c34)c12 [Compound 5j, 2,2-Bis(4-methyl-1H-indol-3-yl)acetonitrile]
- melting point: 246.2 to 250.1 °C

SMILES: Cc1[nH]c2ccc(F)cc2c1C(C#N)c1c(C)[nH]c2ccc(F)cc12 [Compound 5n, 2,2-Bis(5-fluoro-2-methyl-1H-indol-3-yl)acetonitrile]
- melting point: 183.4 to 188 °C
